Several values for one entry are separate records, joined by “and”; a condition that tells them apart may be missing. Identical values can stand only once.
Key:
[1] = system: Wfs1^ΔExon8 mice; assay: Step-through passive avoidance, Wolfram syndrome mouse model; format: in vivo; conditions: IP 20 min before training, retention 24 h after training
Text: The apparatus is a two-compartments (15 × 20 × 15 cm high) box with one illuminated with white polyvinylchloride walls and the other darkened with black polyvinylchloride walls and a grid floor. A guillotine door separates each compartment. A 60 W lamp positioned 40 cm above the apparatus lights up the white compartment during the experiment. Scrambled foot shocks (0.3 mA for 3 s) could be delivered to the grid floor using a shock generator scrambler (Lafayette Instruments, Lafayette, USA). The guillotine door was initially closed during the training session. Each mouse was placed into the white compartment. After 5 s, the door was raised. When the mouse entered the darkened compartment and placed all its paws on the grid floor, the door is closed and the foot shocks delivered for 3 s. The step-through latency (STL-Tg), that is, the latency spent to enter the darkened compartment, and the number of vocalizations were recorded. The retention test was carried out 24 h after training. Each mouse was placed again into the white compartment. After 5 s, the door was raised. The step-through latency (STL-R) was recorded up to 300 s (Meunier et al., 2006, 2013; Villard et al., 2009, 2011). An exclusion criteria was STL-Tg and STL-R < 10 s. Animals showing these readouts are excluded from the calculations. Attrition is routinely < 5% in this test.

[2] = system: Wfs1^ΔExon8 mice; assay: Spontaneous alternation in the Y-maze, Wolfram syndrome mouse model; format: in vivo; conditions: 1 mg/Kg IP, 20 min before the Y-maze session
Description: (§1) The Y-maze is made of grey polyvinylchloride. Each arm is 40 cm long, 13 cm high, 3 cm wide at the bottom, 10 cm wide at the top, and converging at an equal angle. Each mouse was placed at the end of one arm and allowed to move freely through the maze during an 8 min session. The series of arm entries, including possible returns into the same arm, were checked visually. An alternation is defined as entries into all three arms on consecutive occasions. The number of maximum alternations is therefore the total number of arm entries minus two and the percentage of alternation was calculated as (actual alternations / maximum alternations) × 100 (Maurice et al., 1996; Meunier et al., 2006, 2013). Exclusion criteria are locomotion < 10 or percentage of alternation < 25% or > 90%. Animals showing these readouts are excluded from the calculations. Attrition is routinely < 5% in this test.

[3] = Summary of the in vivo tests (active dose range); conditions: dizocilpine-induced amnesia and Aβ25-35 tests
Text: A characteristic of SIG-1R positive modulators, likely due to the chaperone nature of SIG-1R, is to behave in vivo as agonists (Vavers et al., 2019).

[4] = system: Male Swiss mice; assay: Open field activity test (anxiolytic effect) and observation of animals; format: in vivo
Description: Drug administration: Route: intraperitoneal (IP), Method: by injection. The drug was administered under a volume calculated according to the individual body weight of each mouse (5 ml/kg), Frequency: once before the behavioral procedure, Treatment length: once, Timing: 30 minutes before behavioral procedure.
Health of animals was checked daily: general aspect of animals, activity, acute or delayed mortality. Weight was monitored the day of experiment.
The day of the test, animals were tested for general locomotor activity in the open field (OF) activity test for 10 min. The open field is made of opaque white plexiglass. The arena is composed of a large square box (50cm × 50cm × 50cm). Animal movements were followed by an overhead camera placed above the apparatus. Each mouse was placed in the center of the arena and allowed to move freely through the arena during its session. The locomotor activity was assessed by counting the total distance traveled measured in centimeters (cm) for the whole session time. The time spent in center area, and the number of defecations were also assessed.

[5] = system: panel of 47 receptors and ionophores; assay: CEREP screen on a panel of 47 receptors and binding sites; conditions: all targets except CB2 receptors, Kv channels, 5-HT3 and 5-HT1B receptors
Description: Table 1 represents pharmacological profiling of convolamine which was tested at […] and 1 µM in in vitro binding assays designed with appropriate reference compounds in duplicates at CEREP facility.

[6] = target: T1, 5-HT1B receptor (Homo sapiens, UniProt P28222); assay: CEREP in vitro binding assay (pharmacological profiling)
T1 construct: CEREP

[7] = target: T2, SIG-1R (Homo sapiens, UniProt Q99720); assay: In vitro binding to SIG-1R ([3H](+)-pentazocine, Jurkat cell membranes, CEREP); conditions: for inhibition of the binding / displacement of SIG-1R radioligand (in words): no concentration stated
T2 construct: incubated with 15 nM of [^3H](+)-pentazocine in membranes preparations from Jurkat human leukemic T cells; host or cells: Jurkat human leukemic T cells (membrane preparation)
Description: (§2) The assay was performed by CEREP (Celle l'Evescault, France) (study 100062023). SIG-1R binding was performed according to Ganapathy et al. (1999). Increasing drug concentrations (100 nM to 30 µM) were incubated with 15 nM of [^3H](+)-pentazocine in membranes preparations from Jurkat human leukemic T cells. Samples were incubated during 120 min at 37°C and nonspecific binding level was determined using 10 µM of haloperidol. S2R binding was performed according to Ganapathy et al. (1999). Increasing drug concentrations (100 nM to 30 µM) were incubated with 25 nM of [^3H]ditolyl-guanidine in membranes preparations from Jurkat human leukemic T cells. Samples were incubated during 60 min at room temperature and nonspecific binding level was determined using 10 µM of haloperidol. Assays were performed in duplicates and results were expressed as % of specific binding level.

[8] = system: Dizocilpine-induced learning impairments in mice; assay: Spontaneous alternation in the Y-maze, Dizocilpine-induced learning impairments; format: in vivo
Description: as §1
Due to the chaperone nature of SIG-1R, a SIG-1R positive modulator behaves as an agonist in vivo, particularly on learning and memory abilities in mice (Maurice et al., 2019; Vavers et al., 2019). Convolamine was tested on Dizocilpine-induced learning impairments, a well-characterized SIG-1R-mediated response in mice (Maurice et al., 1994, 2001). The NMDA receptor noncompetitive antagonist Dizocilpine (0.15 mg/kg IP) prevented spontaneous alternation behavior (Fig. 4A) and increased mobility (Fig. 4B) in the Y-maze. […] Co-treatment with the SIG-1R antagonist NE-100 at 1 mg/kg IP, blocked the attenuating effect of Convolamine (Fig. 4C), thus confirming the SIG-1R-mediated effect.

[9] = target: T3, S2R (Homo sapiens, UniProt Q5BJF2); assay: In vitro binding to S2R ([3H]ditolyl-guanidine, Jurkat cell membranes, CEREP); conditions: membranes from Jurkat human leukemic T cells, 25 nM radioligand; read-out: IC50 for [3H]DTG binding (S2R / SIG-2R affinity)
T3 construct: 25 nM of [^3H]ditolyl-guanidine in membranes preparations from Jurkat human leukemic T cells; host or cells: Jurkat human leukemic T cells (membrane preparation)
Description: as §2

T2 sequence (Q99720 whole entry): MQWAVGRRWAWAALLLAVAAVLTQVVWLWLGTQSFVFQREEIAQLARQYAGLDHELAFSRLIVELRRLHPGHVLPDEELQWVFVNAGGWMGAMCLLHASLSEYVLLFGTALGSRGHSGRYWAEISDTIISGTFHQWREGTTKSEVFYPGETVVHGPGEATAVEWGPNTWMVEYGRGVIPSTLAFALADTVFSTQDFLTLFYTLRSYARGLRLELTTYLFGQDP
T1 sequence (P28222 whole entry): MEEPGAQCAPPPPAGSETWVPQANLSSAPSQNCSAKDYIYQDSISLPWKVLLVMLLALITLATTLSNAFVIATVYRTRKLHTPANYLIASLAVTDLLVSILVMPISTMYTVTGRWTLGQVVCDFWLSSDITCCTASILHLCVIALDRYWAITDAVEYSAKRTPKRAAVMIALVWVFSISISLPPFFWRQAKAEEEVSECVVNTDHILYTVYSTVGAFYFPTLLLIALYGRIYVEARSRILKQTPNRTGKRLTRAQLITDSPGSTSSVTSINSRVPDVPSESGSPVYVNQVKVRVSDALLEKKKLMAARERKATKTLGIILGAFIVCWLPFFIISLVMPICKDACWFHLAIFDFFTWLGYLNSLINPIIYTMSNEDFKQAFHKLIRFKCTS
T3 sequence (Q5BJF2 whole entry): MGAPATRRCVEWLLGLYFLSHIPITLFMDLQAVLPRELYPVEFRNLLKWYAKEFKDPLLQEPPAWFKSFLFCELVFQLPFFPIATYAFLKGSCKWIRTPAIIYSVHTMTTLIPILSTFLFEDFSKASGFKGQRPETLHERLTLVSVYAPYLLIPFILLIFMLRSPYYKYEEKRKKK

## COc1ccc(C(=O)OC2CC3CCC(C2)N3C)cc1OC (centres unmarked) [Convolamine, (8-methyl-8-azabicyclo[3.2.1]octan-3-yl) 3,4-dimethoxybenzoate]
[1]
  step-through latency deficit during retention (in words): attenuated the deficit
[2]
  alteration of spontaneous alternation (in words): significantly attenuated
[3]
  active dose: 0.3 to 3 mg/kg
[4]; IP 30 minutes before the test
  percentage of locomotion in center of the arena (in words): increase
[4]; IP 30 minutes before the test, compared to the vehicle-treated group
  time spent in the center of the arena (in words): significant and bell-shaped increase
[4]; single IP injection, daily health check
  mortality and adverse effect (in words): No mortality nor adverse effect
[5]
  activity on the panel of 47 receptors and ionophores (in words): inactive
[6]
  stimulation of specific binding: 30-40%
[6]; 0.1 µM, duplicates, negative = stimulation of binding
  inhibition at 0.1 µM: -33%
[6]; 1 µM, duplicates, negative = stimulation of binding
  inhibition at 1 µM: -38.6%
[7]
  IC50: > 30 µM
  inhibition of the binding / displacement of SIG-1R radioligand (in words): did not inhibit
[7]; at concentrations < 10 µM
  inhibition of [3H](+)-pentazocine binding to SIG-1R (in words): failed to inhibit
[7]; listed as convolamine
  inhibition of the binding / displacement of SIG-1R radioligand (in words): does not displace
[8]; 0.1-1 mg/kg IP range, 10 min before Dizocilpine […] IP
  Dizocilpine-induced alternation deficit (in words): attenuated, dose-dependently and significantly but in a bell-shaped manner
[8]; Convolamine 1 mg/Kg IP with NE-100 at 1 mg/kg IP
  attenuating effect of Convolamine on alternation deficit under NE-100 co-treatment (in words): blocked
[9]
  IC50: 13 µM and ~13 µM
